Data on 37 compounds can be found in the OPERA property sets (Mansouri et al. 2018).

Turning to `O=C(NN=Cc1ccccc1O)c1ccc([N+](=O)[O-])cc1`, the logP (in general, the decadic logarithm of the partition coefficient of the neutral form, usually between octanol and water) was found to be 3.03. Compound `O=C(NN=Cc1c(O)ccc2ccccc12)c1ccco1` had a logP of 3.41.

`Cc1ncc(CO)c(C=NNC(=O)c2ccncc2)c1O`: the logP was determined as 1.14. Regarding `Cc1ncc(CO)c(C=NNC(=O)c2cccc(Br)c2)c1O`, the logP came to 3.07. The compound `O=C(NN=Cc1ccccc1O)c1ccncc1` gave a logP of 2.16. `O=C(NN=Cc1ccccc1O)c1cccs1` gave a lipophilicity (logP) of 3.03. As to `Nc1ccc(C(=O)NN=Cc2c(O)ccc3ccccc23)cc1`, the logP was determined as 3.04. Compound `Cc1ncc(CO)c(C=NNC(=O)c2cccc(F)c2)c1O` yielded a logP of 2.42. For `O=C(NN=Cc1ccccc1O)c1ccccc1` the value was 3.01; for `Cc1ncc(CO)c(C=NNC(=O)c2ccccc2)c1O`, 2.23; for `CC(=O)NN=Cc1c(O)ccc2ccccc12`, 2.91. As for `O=C(NN=Cc1ccccc1O)c1ccco1`, the logP came out at 2.67. For the compound `Cc1ncc(CO)c(C=NNC(=O)c2cccc(Cl)c2)c1O`, the logP was determined as 2.96.

For `COc1ccc(C(=O)NN=Cc2c(O)ccc3ccccc23)cc1`, the logP worked out at 4.06. As to `Nc1ccc(C(=O)NN=Cc2ccccc2O)cc1`, the logP turned out to be 2.16. On to `Cc1ncc(CO)c(C=NNc2ccccn2)c1O`, for which the logP was 2.46. With `O=C(NN=Cc1c(O)ccc2ccccc12)c1ccc(O)cc1`, the logP was determined as 3.95. For `O=C(NN=Cc1c(O)ccc2ccccc12)c1ccc([N+](=O)[O-])cc1` the value was 3.58; for `Cc1ccc(C(=O)NN=Cc2c(CO)cnc(C)c2O)cc1`, 2.54.

`Cc1ncc(CO)c(C=NNC(=O)c2ccco2)c1O` returned a logP of 1.39. For `CC(=O)NN=Cc1ccccc1O` the value was 1.71. `O=C(NN=Cc1ccccc1O)c1cccc(Cl)c1` gave a logP of 3.83. For `CC(C)(C)c1ccc(C(=O)NN=Cc2ccccc2O)cc1`, the logP amounted to 4.73. `Cc1ncc(CO)c(C=NNC(=O)c2ccc(O)cc2)c1O` had a logP of 1.89. Compound `Cc1ccc(C(=O)NN=Cc2ccccc2O)cc1` gave a logP of 3.39.

`Cc1ncc(CO)c(C=NNC(=O)c2ccc([N+](=O)[O-])cc2)c1O` yielded a logP of 1.55. The compound `O=C(NN=Cc1ccccc1O)c1cccc(F)c1` yielded a logP of 3.41. Take `Cc1ncc(CO)c(C=NNC(=O)c2ccc(N)cc2)c1O`: the logP is 1.19. For `CC(=O)NN=Cc1c(CO)cnc(C)c1O` the value was 0.65; for `Cc1ncc(CO)c(C=NNC(=O)c2ccc(C(C)(C)C)cc2)c1O`, 3.73; for `Cc1ncc(CO)c(C=NNC(=O)c2cccs2)c1O`, 2.11. For `O=C(NN=Cc1c(O)ccc2ccccc12)c1cccc(F)c1` the value was 4.06. On to `COc1ccc(C(=O)NN=Cc2ccccc2O)cc1`, for which the logP worked out at 3.34.

As for `O=C(NN=Cc1ccccc1O)c1cccc(Br)c1`, the logP was determined as 3.91. For `O=C(NN=Cc1ccccc1O)c1ccc(O)cc1` the value was 2.56; for `Oc1ccccc1C=NNc1ccccn1`, 3.24. In turn, `COc1ccc(C(=O)NN=Cc2c(CO)cnc(C)c2O)cc1` registered a logP of 2.47.
